Series [1] relates to Plasmodium falciparum NF54. Kind of series: P. falciparum in vitro drug sensitivity assay on asexual blood stage parasites ([3H]-hypoxanthine incorporation). It counts as cell-based. As to conditions: Plasmodium falciparum, NF54, Table 1 and main text; read-out: PfNF54 IC50.
A further series deals with Escherichia coli ∆tolC. Put plainly: microbe, parasite or virus in culture. In kind it is cell-based. The note with it: Escherichia coli.
For a further series, the system named is E. coli K12. Put plainly: In vitro antibacterial activity (growth inhibition, OD600), E. coli wild-type. In kind it is cell-based. As to conditions: Escherichia coli.
In another series the test system is Acinetobacter baumannii. Kind of series: In vitro antibacterial activity (growth inhibition, OD600), A. baumannii. In kind it is cell-based. The note with it: for MIC: read-out: Ab MIC95.
Series [2] concerns Pseudomonas aeruginosa PA14. Kind of series: In vitro antibacterial activity (growth inhibition, OD600), P. aeruginosa. It counts as cell-based. As to conditions: PA14, 50 μM compound, Table 1 and main text, read-out: PA14 inh. at 50 μM.
Series [3] deals with Streptococcus pneumoniae (DSM20566). Kind of series: In vitro antibacterial activity (MIC), S. pneumoniae. It counts as cell-based. As to conditions: Streptococcus pneumoniae, DSM20566, read-out: Sp MIC95.
Series [4] relates to Staphylococcus aureus ssp. Aureus. Kind of series: In vitro antibacterial activity (MIC), S. aureus. In kind it is cell-based. The note with it: Staphylococcus aureus, read-out: Sa MIC95.
Series [5] concerns Mycobacterium tuberculosis (Mtb) strain H37Rv. Kind of series: microbe, parasite or virus in culture. In kind it is cell-based. As to conditions: 168 h, 7 days, footnote b: not active at maximum solubility, read-out: MtbH37Rv MIC90.
Series [6] is described as follows: In vitro cytotoxicity by XTT assay. It counts as cell-based. The note with it: human, human monocyte-derived macrophages (hMdM).
The next series can be described thus: in vitro. The note with it: human, HepG2 CC50, 48 h, MTT.
Where [7] appears, read: Table S2, with standard deviation.

≈ marks a conversion by molar mass, not a printed value. Read-outs that look alike come from different tables or passages of the source.

As for `N=C(N)N1CCN(c2ccc(NC(=O)c3cc(-c4cc(Cl)ccc4O)[nH]n3)cc2C(F)(F)F)CC1` [Compound 12G, N-(4-(4-Carbamimidoylpiperazin-1-yl)-3-(trifluoromethyl)phenyl)-5-(5-chloro-2-hydroxyphenyl)-1H-pyrazole-3-carboxamide], the IC50 in [1] was 0.2 µM. For the same compound, the MIC in the series on Escherichia coli ∆tolC (read-out: EcΔtolC MIC95) is 2.8 µM (≈ 1.42 µg/mL); in the series on Escherichia coli ∆tolC (read-out: Ec∆tolC MIC95 (µM)) it was 2.8 ± 0.3 µM (≈ 1.42 µg/mL); in [3] (Table 1 and main text), 31 µM (≈ 15.7 µg/mL); in [3] (setting [7]), 31 ± 6 µM (≈ 15.7 µg/mL); in series [4] (Table 1 and main text) it was 2.4 µM (≈ 1.22 µg/mL); in [4] (setting [7]) it was 2.4 ± 0.3 µM (≈ 1.22 µg/mL). Besides, the inhibition at 50 µM in the series with E. coli K12 (K12, 50 μM compound, Table 1 and main text, read-out: EcK12 inh. at 50 μM) is 51%; in the series on Acinetobacter baumannii (50 μM compound, Table 1 and main text, read-out: Ab inh. at 50 μM) it was 33%; in series [2], below 10%. Moreover, the MIC90 in [5] worked out at 4 µM (≈ 2.03 µg/mL). Further, the CC90 at 24 h in series [6] was found to be 32 µM. The CC50 in the series “in vitro” amounted to 30 µM.

As for `N=C(N)N1CCN(c2cc(NC(=O)c3cc(-c4cc(Cl)ccc4O)[nH]n3)cc(C(F)(F)F)c2)CC1` [Compound 11G, N-(3-(4-Carbamimidoylpiperazin-1-yl)-5-(trifluoromethyl)phenyl)-5-(5-chloro-2-hydroxyphenyl)-1H-pyrazole-3-carboxamide], the IC50 in series [1] was 0.5 µM. The MIC with Escherichia coli ∆tolC (read-out: EcΔtolC MIC95) turned out to be 4 µM (≈ 2.03 µg/mL); with Escherichia coli ∆tolC (read-out: Ec∆tolC MIC95 (µM)) it was 4 ± 1 µM (≈ 2.03 µg/mL); with E. coli K12 (K12, Table S1, printed inside the inhibition column, with standard deviation, unit from Table 1 footnote, read-out: EcK12 MIC95) it was 48 ± 5 µM (≈ 24.4 µg/mL); in the series on Acinetobacter baumannii (Table S1, printed inside the inhibition column, with standard deviation, unit from Table 1 footnote), 17 ± 5 µM (≈ 8.63 µg/mL); in the series with Acinetobacter baumannii (printed inside the Ab inhibition column, Table 1 and main text), 17 µM (≈ 8.63 µg/mL); in [3] (Table 1 and main text), 28 µM (≈ 14.2 µg/mL). For the same compound, the MIC in series [3] (setting [7]) stood at 28 ± 15 µM (≈ 14.2 µg/mL); in series [4] (Table 1 and main text), 3.2 µM (≈ 1.63 µg/mL); in [4] (setting [7]), 3.2 ± 0.1 µM (≈ 1.63 µg/mL). For the same compound, in series [2], the inhibition at 50 µM worked out at 25%. Moreover, the MIC90 in series [5] is 8 µM (≈ 4.06 µg/mL). In [6], this compound yielded a CC90 at 24 h above 32 µM. Besides, the CC50 in “in vitro” is above 25 µM.
